Measurements reported in patent US20230373952A1, “LACTAM COMPOUNDS AS Kv1.3 POTASSIUM SHAKER CHANNEL BLOCKERS” (D.E. Shaw Research, LLC, priority 2020, published 2023).
pIC50: −log10 of the molar value. Where two headings read alike, the source gives them in different places.

How the values were obtained:
[1] = biological target: hERG channel (Homo sapiens, UniProt Q12809); test: cell-based
Description: This assay is used to evaluate the disclosed compounds' inhibition activities against the hERG channel.
CHO-K1 cells stably expressing hERG were grown in Ham's F-12 Medium with glutamine containing 10% heat-inactivated FBS, 1% penicillin/streptomycin, hygromycin (100 μg/ml) and G418 (100 μg/ml). Cells were grown in culture flasks at 37° C. in a 5% CO2-humidified incubator.
All compounds were dissolved in DMSO at 30 mM. Compound stock solutions were freshly diluted with external solution to concentrations of 30 nM, 100 nM, 300 nM, 1 μM, 3 μM, 10 μM, 30 μM and 100 μM. The highest content of DMSO (0.3%) was present in 100 μM.
The voltage protocol (see Table I) was designed to simulate voltage changes during a cardiac action potential with a 300 ms depolarization to +20 mV (analogous to the plateau phase of the cardiac action potential), a repolarization for 300 ms to −50 mV (inducing a tail current) and a final step to the holding potential of −80 mV. The pulse frequency was 0.3 Hz. Control (compound-free) and compound pulse trains for each compound concentration applied contained 70 pulses.
Whole-cell current recordings and compound application were enabled by means of an automated patch clamp platform Patchliner (Nanion). EPC 10 patch clamp amplifier (HEKA) along with Patchmaster software (HEKA Elektronik Dr. Schulze GmbH) was used for data acquisition. Data were sampled at 10 kHz without filtering. Increasing compound concentrations were applied consecutively to the same cell without washouts in between.
AUC and PEAK values were obtained with Patchmaster (HEKA Elektronik Dr. Schulze GmbH). To determine IC50 the last single pulse in the pulse train corresponding to a given compound concentration was used. Obtained AUC and PEAK values in the presence of compound were normalized to control values in the absence of compound.

[2] = biological target: T1, Kv1.3 potassium channel (Homo sapiens, UniProt P22001); test: Kv1.3 potassium channel blocker activity, automated whole-cell patch clamp (Patchliner); assay type: cell-based; details: whole-cell current inhibition, Hill fit
T1 construct: expressed in transfected cells
Description: CHO-K1 cells stably expressing Kv1.3 were grown in DMEM containing 10% heat-inactivated FBS, 1 mM sodium pyruvate, 2 mM L-glutamine and G418 (500 μg/ml).
The currents were evoked by applying 100 ms depolarizing pulses from −90 mV (holding potential) to +40 mV were applied with 0.1 Hz frequency. […] 10-second breaks were used between pulse trains (see Table H below).
Passive leak currents were subtracted online using a P/4 procedure (HEKA Elektronik Dr. Schulze GmbH). […] Total compound incubation time before the next pulse train was not longer than 10 seconds. Peak current inhibition was observed during compound equilibration.

[3] = CHO-K1 cells stably expressing Kv1.3, read-out: Kv1.3 IC50

Chain of hERG channel (Q12809 whole entry): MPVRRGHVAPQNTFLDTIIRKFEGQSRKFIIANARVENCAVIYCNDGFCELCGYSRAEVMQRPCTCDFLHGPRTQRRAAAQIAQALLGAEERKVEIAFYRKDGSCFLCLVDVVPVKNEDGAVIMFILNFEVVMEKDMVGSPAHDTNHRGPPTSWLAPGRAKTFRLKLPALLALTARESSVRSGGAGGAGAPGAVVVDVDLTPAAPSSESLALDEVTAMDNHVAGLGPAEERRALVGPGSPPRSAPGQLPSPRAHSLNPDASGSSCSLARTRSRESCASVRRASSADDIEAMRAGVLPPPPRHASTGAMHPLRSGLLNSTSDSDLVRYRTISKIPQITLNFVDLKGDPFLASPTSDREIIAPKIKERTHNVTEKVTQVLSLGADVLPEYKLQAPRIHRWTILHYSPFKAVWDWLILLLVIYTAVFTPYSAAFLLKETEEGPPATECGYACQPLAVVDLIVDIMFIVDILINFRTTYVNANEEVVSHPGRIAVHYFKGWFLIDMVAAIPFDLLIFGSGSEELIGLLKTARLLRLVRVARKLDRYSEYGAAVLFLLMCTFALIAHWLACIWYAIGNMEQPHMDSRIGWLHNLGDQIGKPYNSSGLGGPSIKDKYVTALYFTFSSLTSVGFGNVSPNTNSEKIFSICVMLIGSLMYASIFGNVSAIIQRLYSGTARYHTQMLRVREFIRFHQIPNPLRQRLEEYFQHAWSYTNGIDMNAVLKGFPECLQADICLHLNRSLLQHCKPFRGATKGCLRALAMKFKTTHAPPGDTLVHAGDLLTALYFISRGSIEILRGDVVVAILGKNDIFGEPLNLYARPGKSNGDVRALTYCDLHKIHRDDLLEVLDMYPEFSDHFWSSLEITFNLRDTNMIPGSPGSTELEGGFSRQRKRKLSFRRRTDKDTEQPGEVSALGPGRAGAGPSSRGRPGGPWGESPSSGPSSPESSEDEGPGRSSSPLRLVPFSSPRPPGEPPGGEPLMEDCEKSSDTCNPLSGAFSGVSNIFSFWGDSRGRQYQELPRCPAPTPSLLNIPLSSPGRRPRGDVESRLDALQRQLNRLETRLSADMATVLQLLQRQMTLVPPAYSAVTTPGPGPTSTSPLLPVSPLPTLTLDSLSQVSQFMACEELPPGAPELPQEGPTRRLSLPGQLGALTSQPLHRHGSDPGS
T1 sequence (P22001 whole entry): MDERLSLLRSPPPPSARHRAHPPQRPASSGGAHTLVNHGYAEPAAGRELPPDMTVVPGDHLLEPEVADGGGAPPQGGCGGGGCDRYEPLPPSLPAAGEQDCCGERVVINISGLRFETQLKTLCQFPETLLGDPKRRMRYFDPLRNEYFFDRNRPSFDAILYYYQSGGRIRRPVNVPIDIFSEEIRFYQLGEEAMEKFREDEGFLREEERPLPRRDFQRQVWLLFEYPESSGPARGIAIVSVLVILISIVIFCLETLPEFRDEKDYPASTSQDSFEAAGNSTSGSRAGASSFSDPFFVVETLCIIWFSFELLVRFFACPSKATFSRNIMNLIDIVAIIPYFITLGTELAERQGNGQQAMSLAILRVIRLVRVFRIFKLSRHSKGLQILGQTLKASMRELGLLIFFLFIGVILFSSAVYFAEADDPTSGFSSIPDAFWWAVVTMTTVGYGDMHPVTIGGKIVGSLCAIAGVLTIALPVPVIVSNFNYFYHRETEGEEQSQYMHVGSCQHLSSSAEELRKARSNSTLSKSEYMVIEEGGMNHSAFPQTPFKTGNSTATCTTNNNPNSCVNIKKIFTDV

Row | SMILES | pIC50 [1] | pIC50 [2, 3] | pIC50 ([2]; Kv1.3 IC50, CHO-K1 cells stably expressing Kv1.3)
1 | O=C1C[C@H](c2c(O)ccc(Cl)c2Cl)CN1[C@@H]1CCNC1 (single isomer, unassigned) [Compound 13, 4-(2,3-dichloro-6-hydroxyphenyl)-[1,3-bipyrrolidin]-2-one] | < 5.00 | > 7.00 | 
2 | O=C1C[C@@H](c2c(O)ccc(Cl)c2Cl)CN1[C@@H]1CCNC1 (single isomer, unassigned) [Compound 14, 4-(2,3-dichloro-6-hydroxyphenyl)-[1,3-bipyrrolidin]-2-one] | < 4.52 | > 6.00 | 
3 | O=C1C[C@H](c2c(O)ccc(Cl)c2Cl)CN1[C@H]1CCNC1 (single isomer, unassigned) [Compound 15, 4-(2,3-dichloro-6-hydroxyphenyl)-[1,3-bipyrrolidin]-2-one] | < 4.52 | > 7.00 | 
4 | O=C1C[C@@H](c2c(O)ccc(Cl)c2Cl)CN1[C@H]1C[C@H](CO)C1 (single isomer, unassigned; isomer 1) [Compound 25] | < 4.52 | > 7.00 | 
5 | O=C1C[C@@H](c2c(O)ccc(Cl)c2Cl)CN1C[C@H]1C[C@H](O)C1 (single isomer, unassigned; isomer 1) [Compound 31] | < 4.52 | > 7.00 | 
6 | CC(CO)N1C[C@H](c2c(O)ccc(Cl)c2Cl)CC1=O (single isomer, unassigned; isomer 1) [Compound 38] | < 4.52 | > 6.00 | 
7 | NC[C@@H](O)CN1C[C@H](c2c(O)ccc(Cl)c2Cl)CC1=O (single isomer, unassigned; isomer 1) [Compound 51] | < 4.00 | > 7.00 | 
8 | O=C1O[C@H](c2c(O)ccc(Cl)c2Cl)CN1CCO (single isomer, unassigned; isomer 1) [Compound 93, 5-(2,3-dichloro-6-hydroxyphenyl)-3-(2-hydroxyethyl)oxazolidin-2-one isomer 1] | < 4.00 | > 6.00 | 
9 | O=C1CO[C@H](c2c(O)ccc(Cl)c2Cl)CN1CCO (single isomer, unassigned; isomer 1) [Compound 95, 6-(2,3-dichloro-6-hydroxyphenyl)-4-(2-hydroxyethyl)morpholin-3-one isomer 1] | < 4.00 | > 6.00 | 
10 | O=C1C[C@@H](c2c(O)ccc(Cl)c2Cl)CN1[C@H]1C[C@@H](CO)C1 (single isomer, unassigned; isomer 2) [Compound 26] | < 4.52 | > 7.00 | 
11 | O=C1C[C@@H](c2c(O)ccc(Cl)c2Cl)CN1C[C@H]1C[C@@H](O)C1 (single isomer, unassigned; isomer 2) [Compound 32] | < 4.52 | > 7.00 | 
12 | C[C@@H](CO)N1C[C@H](c2c(O)ccc(Cl)c2Cl)CC1=O (single isomer, unassigned; isomer 2) [Compound 39] | < 4.00 | > 6.00 | 
13 | NCC(O)CN1C[C@H](c2c(O)ccc(Cl)c2Cl)CC1=O (single isomer, unassigned; isomer 2) [Compound 52] | < 4.00 | > 7.00 | 
14 | O=C1O[C@@H](c2c(O)ccc(Cl)c2Cl)CN1CCO (single isomer, unassigned; isomer 2) [Compound 94, 5-(2,3-dichloro-6-hydroxyphenyl)-3-(2-hydroxyethyl)oxazolidin-2-one isomer 2] | < 4.00 | > 6.00 | 
15 | O=C1C[C@@H](c2c(O)ccc(Cl)c2Cl)CN1[C@H]1C[C@@](O)(CO)C1 (single isomer, unassigned; isomer 3) [Compound 70] | < 4.00 | > 7.00 | 
16 | O=C1C[C@@H](c2c(O)ccc(Cl)c2Cl)CN1[C@H]1C[C@](O)(CO)C1 (single isomer, unassigned; isomer 4) [Compound 71] | < 4.00 | > 7.00 | 
17 | C[C@@H]1C(=O)N(C2CNC2)C[C@@H]1c1c(O)ccc(Cl)c1Cl (single isomer, unassigned; isomer 4) [Compound 90, 1-(azetidin-3-yl)-4-(2,3-dichloro-6-hydroxyphenyl)-3-methylpyrrolidin-2-one isomer 4] | < 4.00 | > 6.00 | 
18 | CC1[C@@H](c2c(O)ccc(Cl)c2Cl)CC(=O)N1C1CNC1 (stereo in doubt) [Compound 76, (4R,5R)-1-(azetidin-3-yl)-4-(2,3-dichloro-6-hydroxyphenyl)-5-methylpyrrolidin-2-one] | < 4.00 | > 6.00 | 
19 | CC1[C@H](c2c(O)ccc(Cl)c2Cl)CC(=O)N1C1CNC1 (stereo in doubt) [Compound 77, (4S,5S)-1-(azetidin-3-yl)-4-(2,3-dichloro-6-hydroxyphenyl)-5-methylpyrrolidin-2-one] | < 4.52 | > 7.00 | 

Row | SMILES | pIC50 [1] | pIC50 [2, 3] | pIC50 ([2]; Kv1.3 IC50, CHO-K1 cells stably expressing Kv1.3)
20 | CC1[C@H](c2c(O)ccc(Cl)c2Cl)CC(=O)N1C[C@H](O)CO (stereo in doubt) [Compound 79, (4S,5S)-4-(2,3-dichloro-6-hydroxyphenyl)-1-[(2S)-2,3-dihydroxypropyl]-5-methylpyrrolidin-2-one] | < 4.52 | > 7.00 | 
21 | CC1[C@H](c2c(O)ccc(Cl)c2Cl)CC(=O)N1CCO (stereo in doubt) [Compound 81, (4S,5S)-4-(2,3-dichloro-6-hydroxyphenyl)-1-(2-hydroxyethyl)-5-methylpyrrolidin-2-one] | < 4.52 | > 7.00 | 
22 | O=C1C[C@@H](c2c(O)ccc(Cl)c2Cl)CN1C1CN(CCO)C1 [Compound 16, (4S)-4-(2,3-dichloro-6-hydroxyphenyl)-1-[1-(2-hydroxyethyl)azetidin-3-yl]pyrrolidin-2-one] | < 5.00 | > 7.00 | 
23 | O=C1C[C@@H](c2c(O)ccc(Cl)c2Cl)CN1C1CCOCC1 [Compound 17, (4S)-4-(2,3-dichloro-6-hydroxyphenyl)-1-(pyran-4-yl)pyrrolidin-2-one] | < 4.52 | > 6.00 | 
24 | O=C1C[C@@H](c2c(O)ccc(Cl)c2Cl)CN1C1CNC1 [Compound 19, (4S)-1-(azetidin-3-yl)-4-(2,3-dichloro-6-hydroxyphenyl)pyrrolidin-2-one] | < 4.00 | > 7.00 | 
25 | O=C1C[C@@H](c2c(O)ccc(Cl)c2Cl)CN1CC1CNC1 [Compound 20, (4S)-1-(azetidin-3-ylmethyl)-4-(2,3-dichloro-6-hydroxyphenyl)pyrrolidin-2-one] | < 4.00 | > 7.00 | 
26 | NCCN1C[C@H](c2c(O)ccc(Cl)c2Cl)CC1=O [Compound 21, (4S)-1-(2-aminoethyl)-4-(2,3-dichloro-6-hydroxyphenyl)pyrrolidin-2-one] | < 4.00 | > 7.00 | 
27 | O=C1C[C@@H](c2cc(Cl)c(Cl)cc2O)CN1C1CNC1 [Compound 22, (4S)-1-(azetidin-3-yl)-4-(4,5-dichloro-2-hydroxyphenyl)pyrrolidin-2-one] | < 4.00 | > 6.00 | 
28 | Cn1cc(CN2C[C@H](c3c(O)ccc(Cl)c3Cl)CC2=O)cn1 [Compound 23, (4S)-4-(2,3-dichloro-6-hydroxyphenyl)-1-[(1-methylpyrazol-4-yl)methyl]pyrrolidin-2-one] | < 4.52 | > 6.00 | 
29 | O=C1C[C@@H](c2c(O)ccc(Cl)c2Cl)CN1C1COC1 [Compound 24, (S)-4-(2,3-dichloro-6-hydroxyphenyl)-1-(oxetan-3-yl)pyrrolidin-2-one] | < 4.52 | > 7.00 | 
30 | O=C1C[C@@H](c2c(O)ccc(Cl)c2Cl)CN1CCO [Compound 29, (4S)-4-(2,3-dichloro-6-hydroxyphenyl)-1-(2-hydroxyethyl)pyrrolidin-2-one] | < 4.52 | > 7.00 | 
31 | O=C1C[C@@H](c2c(O)ccc(Cl)c2Cl)CN1C[C@H](O)CO [Compound 30, (4S)-4-(2,3-dichloro-6-hydroxyphenyl)-1-[(2S)-2,3-dihydroxypropyl]pyrrolidin-2-one] | < 4.00 | > 7.00 | 
32 | O=C1C[C@@H](c2c(O)ccc(Cl)c2Cl)CN1C[C@@H](O)CO [Compound 33, (4S)-4-(2,3-dichloro-6-hydroxyphenyl)-1-[(2R)-2,3-dihydroxypropyl]pyrrolidin-2-one] | < 4.00 | > 7.00 | 
33 | NC(=O)CN1C[C@H](c2c(O)ccc(Cl)c2Cl)CC1=O [Compound 34, 2-[(4S)-4-(2,3-dichloro-6-hydroxyphenyl)-2-oxopyrrolidin-1-yl]acetamide] | < 4.00 |  | > 7.00
34 | O=C1C[C@@H](c2c(O)ccc(Cl)c2Cl)CN1CCCO [Compound 35, (4S)-4-(2,3-dichloro-6-hydroxyphenyl)-1-(3-hydroxypropyl)pyrrolidin-2-one] | < 4.52 | > 8.00 | 
35 | COCCN1C[C@H](c2c(O)ccc(Cl)c2Cl)CC1=O [Compound 36, (4S)-4-(2,3-dichloro-6-hydroxyphenyl)-1-(2-methoxyethyl)pyrrolidin-2-one] | < 4.52 | > 7.00 | 
36 | O=C1C[C@@H](c2c(O)ccc(Cl)c2Cl)CN1CCC(F)(F)F [Compound 37, (4S)-4-(2,3-dichloro-6-hydroxyphenyl)-1-(3,3,3-trifluoropropyl)pyrrolidin-2-one] | < 4.00 | > 6.00 | 
37 | NC(=O)CCN1C[C@H](c2c(O)ccc(Cl)c2Cl)CC1=O [Compound 40, (S)-3-(4-(2,3-dichloro-6-hydroxyphenyl)-2-oxopyrrolidin-1-yl)propanamide] | < 4.00 | > 7.00 | 
38 | CN(C)C(=O)CCN1C[C@H](c2c(O)ccc(Cl)c2Cl)CC1=O [Compound 41, (S)-3-(4-(2,3-dichloro-6-hydroxyphenyl)-2-oxopyrrolidin-1-yl)-N,N-dimethylpropanamide] | < 4.00 | > 7.00 | 
